From patent US20110200549A1, “Organic Compounds Suitable For Modulating Fragrance Compositions” (priority 2008, published 2011)

Assays:
CYP2A13 = target: T1, CYP2A13 (Homo sapiens, UniProt Q16696); experiment: CYP2A13 inhibition, coumarin 7-hydroxylation (Umbelliferone fluorescence) in microsomes; type: biochemical; conditions: recombinant CYP2A13 + P450 reductase microsomes, coumarin 0.006 mM, 60 min at 37° C.; read-out: CYP2A13 inhibitor activity IC50
T1 construct: made in house; host or cells: Sf9 insect cells, recombinant baculovirus
T1 sequence (Q16696 1-494): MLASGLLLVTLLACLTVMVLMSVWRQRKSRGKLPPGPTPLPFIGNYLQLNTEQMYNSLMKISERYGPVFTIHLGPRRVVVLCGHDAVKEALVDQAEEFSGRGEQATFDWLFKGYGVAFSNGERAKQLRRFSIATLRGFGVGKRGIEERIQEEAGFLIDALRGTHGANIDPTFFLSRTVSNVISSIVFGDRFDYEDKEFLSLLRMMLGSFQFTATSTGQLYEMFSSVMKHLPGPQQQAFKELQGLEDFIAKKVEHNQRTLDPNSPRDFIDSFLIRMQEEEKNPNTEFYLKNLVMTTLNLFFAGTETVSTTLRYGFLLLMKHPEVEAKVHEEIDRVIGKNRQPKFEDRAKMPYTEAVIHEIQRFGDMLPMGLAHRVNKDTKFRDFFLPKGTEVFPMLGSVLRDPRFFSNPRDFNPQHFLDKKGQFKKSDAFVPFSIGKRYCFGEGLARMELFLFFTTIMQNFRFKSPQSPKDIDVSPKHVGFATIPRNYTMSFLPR
Protocol: Compounds that inhibit the activity of CYP2A13 are identified by using a standard reaction established for the enzyme. A known substrate is coumarin, and the product of the enzymatic reaction is 7-hydroxy-coumarin (Umbelliferone) which is strongly fluorescent. When a compound is added to the standard reaction and the formation of Umbelliferone is decreased, the compound is identified as an inhibitor, which can also be a competitive substrate of the enzyme. The compound is used at various concentrations and the concentration-dependent decrease in Umbelliferone formation allows to determine the concentration where the activity of the enzyme is reduced to the 50% level (IC50 value).
A test compound (details see Table 1) was incubated with CYP2A13 in the presence of a cytochrome P450 reductase. CYP2A13 and P450 reductase were employed in form of microsomes. CYP2A13 was produced in Sf9 cells using a recombinant baculovirus, under conditions known to the person skilled in the art, for example, as described in WO 2006/007751. P450 reductase is commercially available (BD Biosciences Gentest, USA). Preferably, the two enzymes are coexpressed in the same insect cells and microsomes prepared which contain both enzymes. The art of coexpression of two enzymes is known, and the coexpression CYP2A13 and P450 reductase is described in WO 2006/007751. […] An MOI of 4 for recombinant CYP2A13 baculovirus combined with an MOI of 3.5 for recombinant P450 reductase baculovirus routinely produced microsomes with considerable activity.
Microsomes were used which contained 7 pmoles CYP2A13. Tris buffer (1 M, pH 7.6) and water were added to give a buffer concentration of 0.1M. The test compound was prepared as a 50 mM stock solution in acetonitrile. The concentration of the standard substrate coumarin was 0.006 mM. Several samples of the test compound were prepared at various concentrations to give different final concentrations in the reaction: 0, 0.005, 0.01, 0.02, 0.05, 0.1 and 0.2 mM. The mixture was incubated for 10 min at 37° C. prior to the initiation of the enzymatic reaction by the addition of 0.005 ml of a solution of 50 mM NADPH in water. The final total volume was 0.2 ml, which is suitable for microtiter plate measurements. The samples were incubated for 60 min at 37° C. After 60 min, the enzymatic reaction was stopped by the addition of 0.02 ml cold 50% trichloroacetic acid (TCA) and incubated at 4° C. for 15 min. 0.005 ml of a solution of 50 mM NADPH in water was added to the control reaction which corresponds to the reaction without test compound and without NADPH, and as a consequence, no Umbelliferone was formed. Denatured proteins and other insoluble parts were separated by centrifugation (10 min, 560×g, room-temperature).
The samples were analysed spectrofluorometrically which allows to detect the formation of Umbelliferone as the enzymatic product of coumarin at an excitation wavelength of 340 nm and an emission wavelength of 480 nm.

CYP2B6 = target: T2, CYP2B6 (Homo sapiens, UniProt P20813); experiment: CYP2B6 inhibition, 7-ethoxy-4-trifluoromethyl-coumarin fluorescence assay in microsomes; type: biochemical; conditions: CYP2B6 + P450 reductase microsomes, 7-ethoxy-4-trifluoromethyl-coumarin 6 μM, 40 min at 37° C.; read-out: CYP2B6 inhibitor activity IC50
T2 construct: made in house; host or cells: Sf9 insect cells, recombinant baculoviruses, coexpressed with P450 reductase
T2 sequence (P20813 1-491): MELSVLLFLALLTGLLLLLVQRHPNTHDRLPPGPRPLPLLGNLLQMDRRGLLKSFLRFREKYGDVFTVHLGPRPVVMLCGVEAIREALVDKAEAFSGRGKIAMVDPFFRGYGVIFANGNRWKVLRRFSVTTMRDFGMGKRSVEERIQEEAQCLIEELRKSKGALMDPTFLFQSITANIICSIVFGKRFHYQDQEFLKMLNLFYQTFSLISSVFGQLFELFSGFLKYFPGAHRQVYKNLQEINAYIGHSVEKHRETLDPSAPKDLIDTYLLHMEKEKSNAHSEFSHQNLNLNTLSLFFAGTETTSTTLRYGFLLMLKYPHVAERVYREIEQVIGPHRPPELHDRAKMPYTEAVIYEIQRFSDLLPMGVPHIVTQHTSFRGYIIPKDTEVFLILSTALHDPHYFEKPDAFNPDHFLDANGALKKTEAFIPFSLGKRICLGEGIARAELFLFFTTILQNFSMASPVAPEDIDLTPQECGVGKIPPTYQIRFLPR
Protocol: Test compounds that inhibit the activity of CYP2B6 are identified by using the same principle as described in Example 42, first paragraph.
A test compound (details see Table 2) was incubated with CYP2B6 in the presence of a cytochrome P450 reductase. CYP2B6 and P450 reductase are produced using recombinant baculoviruses and co-expressing the two proteins in Sf9 insect cells as described in Example 42. Alternatively, microsomes containing CYP2B6 and the reductase are commercially available (BD Biosciences Gentest, USA). Microsomes were used which contained 1.5 pmoles CYP2B6. Potassium phosphate buffer final concentration was 100 mM, (1M stock, pH 7.4). The test compound was prepared as a 50 mM stock solution in acetonitrile. The concentration of the standard substrate 7-ethoxy-4-trifluoromethyl-coumarin was 6 μM. Several samples of the test compound were prepared at various concentrations to give different final concentrations in the reaction: 0, 0.005, 0.01, 0.02, 0.05, 0.1 and 0.2 mM. […] The final total volume was 0.2 ml, which is suitable for microtiter plate measurements. The samples were incubated for 40 min at 37° C. After 40 min, the enzymatic reaction was stopped by the addition of […] 0.5M Tris-base/acetonitrile (18:72). 0.005 ml of a solution of 50 mM NADPH in water was added to the control reaction which corresponds to the reaction with test compound and enzyme but without NADPH, and as a consequence, no 4-trifluoromethyl-umbelliferone was formed. Denatured proteins and other insoluble parts were separated by centrifugation (5 min, 1800 rpm, at 10° C.).
The samples were analysed spectrofluorometrically which allows to detect the formation of 4-trifluoromethyl-umbelliferone as the enzymatic product at an excitation wavelength of 410 nm and an emission wavelength of 510 nm.

[1] = Sensory panel study with olfactometer (Virtual Aroma Synthesizer): modulation of a fragrance accord by the inhibitor; parameters: species or system human; conditions: 10-ingredient fragrance accord with vs without inhibitor, random order, panelists
Protocol: For each panelist, the inhibitor was tested by itself and confirmed that it was rated as being odorless at the given concentration.
Sensory studies are performed using an olfactometer, such as the Virtual Aroma Synthesizer (VAS) which is described in Chimia (2001) 55:401-405. The instrument allows to combine saturated headspace of different samples from different containers at various dilutions in order to determine the effect on the odor of the mixture produced in headspace. For the particular example, in one container the fragrance accord (1 gram) was adsorbed on beads (4 grams) and in another container the inhibitor N-(cyclopropylmethyl)-N-pentylacetamide was adsorbed on beads (4 grams).
Panelists were selected having different levels of experience and expertise in smelling, rating, describing and evaluating odorants, accords and perfumes. Panelists smelled the accord with or without the inhibitor at random order, not knowing which one was presented. Before and after the session, it was confirmed that the inhibitor alone was odorless.

SMILES | IC50 (CYP2A13) [µM] | IC50 (CYP2B6) [µM] | Effect on the odor of the fragrance accord attributed to the presence of the inhibitor [1]
CCCCCN(C(C)=O)C(=O)OC(C)(C)C [Ex. 34, tert-butyl acetyl(pentyl)carbamate] | 1.5 | 11 | –
CCCCCN(CC1CC1)C(C)=O [Ex. 10, N-(cyclopropylmethyl)-N-pentylacetamide] | 0.5 | 87 | intensifying or boosting the fruitiness of the accord
CCCCCN(CCc1ccccn1)C(=O)OC [Ex. 17, methyl pentyl(2-(pyridin-2-yl)ethyl)carbamate] | 44 | – | –
CCCCN(Cc1ccccc1)C(C)=O [Ex. 6, N-benzyl-N-butylacetamide] | 8 | – | –
CCCCCN(Cc1ccccn1)C(C)=O [Ex. 22, N-pentyl-N-(pyridin-2-ylmethyl)acetamide] | 10 | – | –
CCCCCN(CCc1c[nH]cn1)C(=O)OC [Ex. 28, methyl 2-(1H-imidazol-4-yl)ethyl(pentyl)carbamate] | 47 | – | –
CCCCCN(CCc1cccnc1)C(=O)OC [Ex. 19, methyl pentyl(2-(pyridin-3-yl)ethyl)carbamate] | 41 | – | –
CCCCC/C(=C\c1ccccc1)C(=O)N(C)C [Ex. 39, (E)-2-benzylidene-N,N-dimethylheptanamide] | 3 | – | –
CCCCCN(Cc1ccccn1)C(=O)OC [Ex. 23, methyl pentyl(pyridin-2-ylmethyl)carbamate] | 20 | – | –
CCCCCN(CCc1c[nH]cn1)C(C)=O [Ex. 27, N-(2-(1H-imidazol-4-yl)ethyl)-N-pentylacetamide] | 34 | 2.5 | –
CCCCCN(Cc1ccncc1)C(C)=O [Ex. 8, N-pentyl-N-(pyridin-4-ylmethyl)acetamide] | 11 | – | –
CCCCC/C(=C\C1CC1)C(=O)NC [Ex. 38, (E)-2-(cyclopropylmethylene)-N-methylheptanamide] | 0.8 | – | –
CCCCCN(Cc1ccccc1)C(=O)OC [Ex. 29, methyl benzyl(pentyl)carbamate] | 1.6 | 20 | –
CCCCCN(CCc1cccnc1)C(C)=O [Ex. 18, N-pentyl-N-(2-(pyridin-3-yl)ethyl)acetamide] | 25 | – | –
CCCCCN(C(C)=O)c1ccccc1 [Ex. 2, N-pentyl-N-phenylacetamide] | 0.5 | 46 | –
CCCCCN(Cc1ccncc1)C(=O)OC [Ex. 9, methyl pentyl(pyridin-4-ylmethyl)carbamate] | 17 | – | –
CCCCC/C(=C\c1ccccc1)C(=O)NC [Ex. 37, (E)-2-benzylidene-N-methylheptanamide] | 0.5 | – | –
CCCCCN(CCc1ccncc1)C(C)=O [Ex. 20, N-pentyl-N-(2-(pyridin-4-yl)ethyl)acetamide] | 13 | 19 | –
CCCCC/C(=C\C1CC1)C(N)=O [Ex. 41, (E)-2-(cyclopropylmethylene)heptanamide] | 1.1 | – | –
CCCCCN(C(C)=O)C(=O)C1CC1 [Ex. 33, N-acetyl-N-pentylcyclopropanecarboxamide] | 0.7 | 17 | –
CC(=O)N(CCc1ccccc1)Cc1ccccc1 [Ex. 35, N-benzyl-N-phenethylacetamide] | 52 | – | –
CCCCCN(CC1CC1)C(=O)OC [Ex. 11, methyl cyclopropylmethyl(pentyl)carbamate] | 3 | 28 | –
CCCCCN(CCc1ccccc1)C(C)=O [Ex. 3, N-pentyl-N-phenethylacetamide] | 2 | 93 | –
CCCCCN(Cc1cccnc1)C(C)=O [Ex. 4, N-pentyl-N-(pyridin-3-ylmethyl)acetamide] | 15 | – | –
CCCCCN(Cc1cccnc1)C(=O)OC [Ex. 5, methyl pentyl(pyridin-3-ylmethyl)carbamate] | 22 | – | –
CCCCC/C(=C\C1CC1)C(=O)N(C)C [Ex. 40, (E)-2-(cyclopropylmethylene)-N,N-dimethylheptanamide] | 9 | – | –
CCCCCN(CCc1ccncc1)C(=O)OC [Ex. 21, methyl pentyl(2-(pyridin-4-yl)ethyl)carbamate] | 2 | – | –
CCCCCN(Cc1ccccc1)C(C)=O [Ex. 1, N-benzyl-N-pentylacetamide] | 0.3 | 72 | –
CCCCCN(C=O)CC1CC1 [Ex. 36, N-(cyclopropylmethyl)-N-pentylformamide] | 1.3 | 49 | –
CCCCCN(CCc1ccccn1)C(C)=O [Ex. 16, N-pentyl-N-(2-(pyridin-2-yl)ethyl)acetamide] | 24 | – | –
